In the NIST ThermoML archive (doi:10.1016/j.tca.2014.05.028):
± gives the expanded uncertainty stated by the source.

Test: xn = mol fraction of the nth substance listed
Conditions: 101 kPa, Liquid; for viscosity: Falling or rolling sphere viscometry; for mass density: Vibrating tube method

CCC[N+]1(C)CCCC1.[Br-] [1-methyl-1-propylpyrrolidinium bromide] + O
Conditions | mass density, 298.15 K [kg/m3] | mass density, 303.15 K [kg/m3] | mass density, 308.15 K [kg/m3] | mass density, 313.15 K [kg/m3] | mass density, 318.15 K [kg/m3] | viscosity, 298.15 K [mPa·s] | viscosity, 303.15 K [mPa·s] | viscosity, 308.15 K [mPa·s] | viscosity, 313.15 K [mPa·s] | viscosity, 318.15 K [mPa·s]
x1 = 0.0315 | 1060.85 ± 0.4 | 1058.76 ± 0.4 | 1056.5 ± 0.4 | 1054.11 ± 0.39 | 1051.58 ± 0.39 | 1.604 ± 0.097 | 1.412 ± 0.085 | 1.216 ± 0.074 | 1.077 ± 0.065 | 0.972 ± 0.059
x1 = 0.0664 | 1111.9 ± 0.34 | 1109.17 ± 0.34 | 1106.34 ± 0.34 | 1103.44 ± 0.33 | 1100.44 ± 0.33 | 2.896 ± 0.17 | 2.5 ± 0.15 | 2.115 ± 0.13 | 1.841 ± 0.11 | 1.633 ± 0.099
x1 = 0.0983 | 1147.67 ± 0.3 | 1144.55 ± 0.29 | 1141.38 ± 0.29 | 1138.15 ± 0.29 | 1134.88 ± 0.29 | 5.311 ± 0.32 | 4.504 ± 0.27 | 3.451 ± 0.21 | 2.994 ± 0.18 | 2.652 ± 0.16
x1 = 0.1376 | 1178.4 ± 0.28 | 1175.05 ± 0.28 | 1171.66 ± 0.28 | 1168.23 ± 0.28 | 1164.78 ± 0.28 | 8.527 ± 0.52 | 7.082 ± 0.43 | 5.766 ± 0.35 | 4.851 ± 0.29 | 4.16 ± 0.25
x1 = 0.1685 | 1196.91 ± 0.28 | 1193.47 ± 0.28 | 1190.01 ± 0.28 | 1186.52 ± 0.27 | 1183 ± 0.27 | 12.41 ± 0.75 | 10.2 ± 0.62 | 8.237 ± 0.5 | 6.89 ± 0.42 | 5.833 ± 0.35
x1 = 0.2138 | 1217.36 ± 0.29 | 1213.89 ± 0.29 | 1210.41 ± 0.29 | 1206.9 ± 0.29 | 1203.37 ± 0.29 | 20.56 ± 1.2 | 16.41 ± 0.99 | 12.97 ± 0.78 | 10.66 ± 0.65 | 8.968 ± 0.54
x1 = 0.2382 | 1225.96 ± 0.3 | 1222.51 ± 0.3 | 1219.05 ± 0.3 | 1215.56 ± 0.3 | 1212.05 ± 0.3 | 26.01 ± 1.6 | 20.59 ± 1.2 | 16.15 ± 0.98 | 13.14 ± 0.8 | 10.98 ± 0.66
x1 = 0.27 | 1235.84 ± 0.32 | 1232.42 ± 0.32 | 1228.99 ± 0.31 | 1225.54 ± 0.31 | 1222.08 ± 0.31 | 35.47 ± 2.1 | 27.62 ± 1.7 | 21.43 ± 1.3 | 17.24 ± 1 | 14.27 ± 0.86
x1 = 0.3143 | 1245.39 ± 0.35 | 1242.02 ± 0.34 | 1238.64 ± 0.34 | 1235.25 ± 0.34 | 1231.85 ± 0.34 | 50.7 ± 3.1 | 39.02 ± 2.4 | 29.75 ± 1.8 | 23.61 ± 1.4 | 19.29 ± 1.2
x1 = 0.3535 | 1251.89 ± 0.38 | 1248.57 ± 0.37 | 1245.24 ± 0.37 | 1241.91 ± 0.37 | 1238.59 ± 0.37 | 69.94 ± 4.3 | 53.25 ± 3.2 | 40.25 ± 2.4 | 31.53 ± 1.9 | 25.42 ± 1.5
x1 = 1 | 1259.96 ± 1.4 | 1255.92 ± 1.4 | 1251.9 ± 1.4 | 1247.91 ± 1.4 | 1243.94 ± 1.4 | – | – | – | – | –
